From patent US20250230193A1, “CYCLIC COMPOUND HAVING SELECTIVE KRAS INHIBITORY EFFECT ON HRAS AND NRAS” (CHUGAI SEIYAKU KABUSHIKI KAISHA, priority 2022, published 2025)

Columns and labels:
[1] = target: GDP-bound NRAS wild-type protein (Homo sapiens, UniProt P01111); test: Binding to NRAS by surface plasmon resonance (SPR), Single Cycle Kinetics; details: KD ratio, GDP-bound NRAS wild-type vs GDP-bound KRAS wild-type, SPR
[2] = target: GDP-bound HRAS wild-type protein (Homo sapiens, UniProt P01112); test: Binding to HRAS by surface plasmon resonance (SPR), Single Cycle Kinetics; details: KD ratio, GDP-bound HRAS wild-type vs GDP-bound KRAS wild-type, SPR
GDP-bound HRAS wild-type protein, sequence (P01112 whole entry): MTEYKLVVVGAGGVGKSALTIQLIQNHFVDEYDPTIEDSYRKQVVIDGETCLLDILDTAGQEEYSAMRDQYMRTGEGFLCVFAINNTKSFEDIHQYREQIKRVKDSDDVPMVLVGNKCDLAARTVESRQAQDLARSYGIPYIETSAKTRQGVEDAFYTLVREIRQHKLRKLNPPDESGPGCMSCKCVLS

GDP-bound NRAS wild-type protein, sequence (P01111 whole entry): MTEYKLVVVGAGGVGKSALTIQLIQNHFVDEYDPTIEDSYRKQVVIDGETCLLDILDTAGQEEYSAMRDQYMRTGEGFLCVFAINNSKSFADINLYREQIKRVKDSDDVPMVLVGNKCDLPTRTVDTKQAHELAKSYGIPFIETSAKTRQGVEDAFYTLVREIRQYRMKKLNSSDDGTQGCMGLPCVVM

How did the “NRAS/KRAS (ratio of KD value with respect to NRAS to KD value with respect to KRAS)” value [1] turn out when CCO[C@@H]1C[C@H]2C(=O)NC3(CCC3)C(=O)N(C)[C@@H](C3CCCC3)C(=O)N(C)[C@H](C(=O)N(C)C)CC(=O)N(C)[C@@H](CC)C(=O)N[C@@H]([C@@H](C)CC)C(=O)N(C)CC(=O)N(C)[C@H]3CCCCCN(C3=O)[C@@H](Cc3ccc(F)cc3C)C(=O)N(C)CC(=O)N[C@@H](CCc3cc(F)c(C(F)(F)F)c(F)c3)C(=O)N2C1 [PP0911] was run?
Its value is “B (a compound having 3 or more and less than 10 is denoted as B)”.

And the “HRAS/KRAS (ratio of KD value with respect to HRAS to KD value with respect to KRAS)” value [2]?
Its value is “B (a compound having 3 or more and less than 10 is denoted as B)”.

Which “NRAS/KRAS (ratio of KD value with respect to NRAS to KD value with respect to KRAS)” value [1] does the source give for CCO[C@@H]1C[C@H]2C(=O)NC3(CCC3)C(=O)N(C)[C@@H](C3CCCC3)C(=O)N(C)[C@H](C(=O)N(C)C)CC(=O)N(C)[C@@H](CC)C(=O)N[C@@H]([C@@H](C)CC)C(=O)N(C)CC(=O)N(C)[C@H]3CCCCCN(C3=O)[C@@H](Cc3ccc(F)c(C)c3)C(=O)N(C)CC(=O)N[C@@H](CCc3cc(F)c(C(F)(F)F)c(F)c3)C(=O)N2C1 [PP0912] here?
Its value is “B (a compound having 3 or more and less than 10 is denoted as B)”.

What about the “HRAS/KRAS (ratio of KD value with respect to HRAS to KD value with respect to KRAS)” value [2] of the same molecule?
Its value is “B (a compound having 3 or more and less than 10 is denoted as B)”.

Which “NRAS/KRAS (ratio of KD value with respect to NRAS to KD value with respect to KRAS)” value [1] does the source give for CCO[C@@H]1C[C@H]2C(=O)NC3(CCC3)C(=O)N(C)[C@@H](C3CCCC3)C(=O)N(C)[C@H](C(=O)N(C)C)CC(=O)N(C)[C@@H](CC)C(=O)N[C@@H]([C@@H](C)CC)C(=O)N(C)CC(=O)N(C)[C@H]3CCCCCN(C3=O)[C@@H](Cc3nccs3)C(=O)N(C)CC(=O)N[C@@H](CCc3cc(F)c(C(F)(F)F)c(F)c3)C(=O)N2C1 [PP0913] here?
Its value is “B (a compound having 3 or more and less than 10 is denoted as B)”.

What about the “HRAS/KRAS (ratio of KD value with respect to HRAS to KD value with respect to KRAS)” value [2] of the same molecule?
The value was “B (a compound having 3 or more and less than 10 is denoted as B)”.

Which results are given for CCO[C@@H]1C[C@H]2C(=O)NC3(CCC3)C(=O)N(C)[C@@H](C3CCCC3)C(=O)N(C)[C@H](C(=O)N(C)C)CC(=O)N(C)[C@@H](CC)C(=O)N[C@@H]([C@@H](C)CC)C(=O)N(C)CC(=O)N(C)[C@H]3CCCCCN(C3=O)[C@@H](Cc3ccc(F)cc3OC)C(=O)N(C)CC(=O)N[C@@H](CCc3cc(F)c(C(F)(F)F)c(F)c3)C(=O)N2C1 [PP0914]?
NRAS/KRAS (ratio of KD value with respect to NRAS to KD value with respect to KRAS) [1]: B (a compound having 3 or more and less than 10 is denoted as B); HRAS/KRAS (ratio of KD value with respect to HRAS to KD value with respect to KRAS) [2]: B (a compound having 3 or more and less than 10 is denoted as B)

CCO[C@@H]1C[C@H]2C(=O)NC3(CCC3)C(=O)N(C)[C@@H](C3CCCC3)C(=O)N(C)[C@H](C(=O)N(C)C)CC(=O)N(C)[C@@H](CC)C(=O)N[C@@H]([C@@H](C)CC)C(=O)N(C)CC(=O)N(C)[C@H]3CCCCCN(C3=O)[C@@H](Cc3ccc(F)c(OC)c3)C(=O)N(C)CC(=O)N[C@@H](CCc3cc(F)c(C(F)(F)F)c(F)c3)C(=O)N2C1 [PP0915] was tested. Which “NRAS/KRAS (ratio of KD value with respect to NRAS to KD value with respect to KRAS)” value [1] did it give?
The value was “B (a compound having 3 or more and less than 10 is denoted as B)”.

What about the “HRAS/KRAS (ratio of KD value with respect to HRAS to KD value with respect to KRAS)” value [2] of the same molecule?
Its value is “B (a compound having 3 or more and less than 10 is denoted as B)”.

With CCO[C@@H]1C[C@H]2C(=O)NC3(CCC3)C(=O)N(C)[C@@H](C3CCCC3)C(=O)N(C)[C@H](C(=O)N3CCOCC3)CC(=O)N(C)[C@@H](CC(C)C)C(=O)N[C@@H]([C@@H](C)CC)C(=O)N(C)CC(=O)N(C)[C@H]3CCCCCN(C3=O)[C@@H](Cc3ccc(F)c(F)c3)C(=O)N(C)CC(=O)N[C@@H](CCc3cc(F)c(C(F)(F)F)c(F)c3)C(=O)N2C1 [PP0917] as the molecule, how does the “NRAS/KRAS (ratio of KD value with respect to NRAS to KD value with respect to KRAS)” value [1] read?
The value was “B (a compound having 3 or more and less than 10 is denoted as B)”.

What about the “HRAS/KRAS (ratio of KD value with respect to HRAS to KD value with respect to KRAS)” value [2] of the same molecule?
Its value is “B (a compound having 3 or more and less than 10 is denoted as B)”.

With CCO[C@@H]1C[C@H]2C(=O)NC3(CCC3)C(=O)N(C)[C@@H](C3CCCC3)C(=O)N(C)[C@H](C(=O)N3CCOCC3)CC(=O)N(C)[C@@H](CC(C)C)C(=O)N[C@@H]([C@@H](C)CC)C(=O)N(C)CC(=O)N(C)[C@H]3CCCCCN(C3=O)[C@@H](Cc3ccc(F)cc3Cl)C(=O)N(C)CC(=O)N[C@@H](CCc3cc(F)c(C(F)(F)F)c(F)c3)C(=O)N2C1 [PP0918] as the molecule, how does the “NRAS/KRAS (ratio of KD value with respect to NRAS to KD value with respect to KRAS)” value [1] read?
The value was “B (a compound having 3 or more and less than 10 is denoted as B)”.

What about the “HRAS/KRAS (ratio of KD value with respect to HRAS to KD value with respect to KRAS)” value [2] of the same molecule?
Its value is “B (a compound having 3 or more and less than 10 is denoted as B)”.

Which results are given for CCO[C@@H]1C[C@H]2C(=O)NC3(CCC3)C(=O)N(C)[C@@H](C3CCCC3)C(=O)N(C)[C@H](C(=O)N3CCOCC3)CC(=O)N(C)[C@@H](CC(C)C)C(=O)N[C@@H]([C@@H](C)CC)C(=O)N(C)CC(=O)N(C)[C@H]3CCCCCN(C3=O)[C@@H](Cc3ccc(F)c(Cl)c3)C(=O)N(C)CC(=O)N[C@@H](CCc3cc(F)c(C(F)(F)F)c(F)c3)C(=O)N2C1 [PP0919]?
NRAS/KRAS (ratio of KD value with respect to NRAS to KD value with respect to KRAS) [1]: B (a compound having 3 or more and less than 10 is denoted as B); HRAS/KRAS (ratio of KD value with respect to HRAS to KD value with respect to KRAS) [2]: B (a compound having 3 or more and less than 10 is denoted as B)

With CCO[C@@H]1C[C@H]2C(=O)NC3(CCC3)C(=O)N(C)[C@@H](C3CCCC3)C(=O)N(C)[C@H](C(=O)N3CCOCC3)CC(=O)N(C)[C@@H](CC(C)C)C(=O)N[C@@H]([C@@H](C)CC)C(=O)N(C)CC(=O)N(C)[C@H]3CCCCCN(C3=O)[C@@H](Cc3ccc4sccc4c3)C(=O)N(C)CC(=O)N[C@@H](CCc3cc(F)c(C(F)(F)F)c(F)c3)C(=O)N2C1 [PP0920] as the molecule, how does the “NRAS/KRAS (ratio of KD value with respect to NRAS to KD value with respect to KRAS)” value [1] read?
The value was “B (a compound having 3 or more and less than 10 is denoted as B)”.

What about the “HRAS/KRAS (ratio of KD value with respect to HRAS to KD value with respect to KRAS)” value [2] of the same molecule?
The value was “B (a compound having 3 or more and less than 10 is denoted as B)”.

With CCO[C@@H]1C[C@H]2C(=O)NC3(CCC3)C(=O)N(C)[C@@H](C3CCCC3)C(=O)N(C)[C@H](C(=O)N3CCOCC3)CC(=O)N(C)[C@@H](CC(C)C)C(=O)N[C@@H]([C@@H](C)CC)C(=O)N(C)CC(=O)N(C)[C@H]3CCCCCN(C3=O)[C@@H](Cc3ccc4ccsc4c3)C(=O)N(C)CC(=O)N[C@@H](CCc3cc(F)c(C(F)(F)F)c(F)c3)C(=O)N2C1 [PP0921] as the molecule, how does the “NRAS/KRAS (ratio of KD value with respect to NRAS to KD value with respect to KRAS)” value [1] read?
Its value is “B (a compound having 3 or more and less than 10 is denoted as B)”.

What about the “HRAS/KRAS (ratio of KD value with respect to HRAS to KD value with respect to KRAS)” value [2] of the same molecule?
The value was “B (a compound having 3 or more and less than 10 is denoted as B)”.

For CCO[C@@H]1C[C@H]2C(=O)NC3(CCC3)C(=O)N(C)[C@@H](C3CCCC3)C(=O)N(C)[C@H](C(=O)N3CCOCC3)CC(=O)N(C)[C@@H](CC(C)C)C(=O)N[C@@H]([C@@H](C)CC)C(=O)N(C)CC(=O)N(C)[C@H]3CCCCCN(C3=O)[C@@H](Cc3ccc(F)c(C)c3)C(=O)N(C)CC(=O)N[C@@H](CCc3cc(F)c(C(F)(F)F)c(F)c3)C(=O)N2C1 [PP0922], which “NRAS/KRAS (ratio of KD value with respect to NRAS to KD value with respect to KRAS)” value [1] is on record?
The value was “B (a compound having 3 or more and less than 10 is denoted as B)”.

And the “HRAS/KRAS (ratio of KD value with respect to HRAS to KD value with respect to KRAS)” value [2]?
The value was “B (a compound having 3 or more and less than 10 is denoted as B)”.
